Laboratory results: ChEMBL document CHEMBL1909046, “DrugMatrix in vitro pharmacology data”

Tests used:
[1] = target: Sodium-dependent dopamine transporter (Homo sapiens, UniProt Q01959); test: DRUGMATRIX: Dopamine Transporter radioligand binding (ligand: [125I] RTI-55); format: cell membranes, CHO-K1, Membrane; conditions: Not Active = under 50% inhibition at 10 µM
[2] = target: T1, Amine oxidase [flavin-containing] A (Homo sapiens, UniProt P21397); test: DRUGMATRIX: Monoamine Oxidase MAO-A enzyme inhibition (substrate: Kynuramine); parameters: species or system BTI-TN-5B1-4; conditions: Not Active = under 50% inhibition at 10 µM
T1 sequence (P21397 whole entry): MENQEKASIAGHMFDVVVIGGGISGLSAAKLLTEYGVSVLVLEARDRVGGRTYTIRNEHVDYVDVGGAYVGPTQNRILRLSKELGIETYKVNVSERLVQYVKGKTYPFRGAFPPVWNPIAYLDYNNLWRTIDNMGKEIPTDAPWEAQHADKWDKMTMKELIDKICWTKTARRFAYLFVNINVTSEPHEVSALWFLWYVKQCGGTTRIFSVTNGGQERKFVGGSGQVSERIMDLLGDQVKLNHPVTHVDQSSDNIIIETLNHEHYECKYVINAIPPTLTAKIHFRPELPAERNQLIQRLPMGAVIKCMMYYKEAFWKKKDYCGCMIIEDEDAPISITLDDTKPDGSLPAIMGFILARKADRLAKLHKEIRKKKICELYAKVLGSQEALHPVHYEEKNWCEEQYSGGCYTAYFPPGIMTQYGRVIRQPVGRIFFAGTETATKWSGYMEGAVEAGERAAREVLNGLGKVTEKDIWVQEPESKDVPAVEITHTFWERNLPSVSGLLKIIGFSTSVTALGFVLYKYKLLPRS

[3] = target: T2, Neuropeptide Y receptor type 1 (Homo sapiens, UniProt P25929); format: cell membranes, Membrane; conditions: sk-n-mc; further: in other assays of this panel Not Active means under 50% inhibition at 10 µM
T2 sequence (P25929 whole entry): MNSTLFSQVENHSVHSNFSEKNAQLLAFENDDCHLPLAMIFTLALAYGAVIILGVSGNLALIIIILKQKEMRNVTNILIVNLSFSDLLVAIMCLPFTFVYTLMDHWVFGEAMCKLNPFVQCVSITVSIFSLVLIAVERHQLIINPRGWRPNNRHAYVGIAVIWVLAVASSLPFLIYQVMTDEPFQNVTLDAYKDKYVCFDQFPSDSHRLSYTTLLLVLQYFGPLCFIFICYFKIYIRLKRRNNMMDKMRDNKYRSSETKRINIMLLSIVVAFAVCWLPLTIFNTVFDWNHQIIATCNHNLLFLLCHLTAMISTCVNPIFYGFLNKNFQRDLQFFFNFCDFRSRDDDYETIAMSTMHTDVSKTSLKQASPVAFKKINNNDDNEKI

[4] = target: T3, Alpha-1D adrenergic receptor (Homo sapiens, UniProt P25100); format: cell membranes, HEK293, Membrane; conditions: hek293; further: in other assays of this panel Not Active means under 50% inhibition at 10 µM
T3 sequence (P25100 whole entry): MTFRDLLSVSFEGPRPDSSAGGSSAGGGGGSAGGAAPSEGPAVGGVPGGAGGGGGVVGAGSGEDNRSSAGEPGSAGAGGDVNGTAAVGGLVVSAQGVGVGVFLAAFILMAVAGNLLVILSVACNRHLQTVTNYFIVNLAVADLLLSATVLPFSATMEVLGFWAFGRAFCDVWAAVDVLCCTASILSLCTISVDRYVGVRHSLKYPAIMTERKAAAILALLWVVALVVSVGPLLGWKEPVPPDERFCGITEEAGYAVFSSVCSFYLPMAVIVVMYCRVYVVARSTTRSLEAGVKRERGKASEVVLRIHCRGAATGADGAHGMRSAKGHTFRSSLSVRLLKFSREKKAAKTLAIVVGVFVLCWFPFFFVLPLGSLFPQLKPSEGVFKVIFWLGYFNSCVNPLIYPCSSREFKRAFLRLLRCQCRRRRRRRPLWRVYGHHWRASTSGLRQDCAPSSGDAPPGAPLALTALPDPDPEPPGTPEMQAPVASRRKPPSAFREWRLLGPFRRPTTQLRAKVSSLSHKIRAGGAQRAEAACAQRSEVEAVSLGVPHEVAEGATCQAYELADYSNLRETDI

B2 bradykinin receptor = target: T4, B2 bradykinin receptor (Homo sapiens, UniProt P30411); format: cell membranes, Membrane; conditions: chem-1; further: in other assays of this panel Not Active means under 50% inhibition at 10 µM
T4 sequence (P30411 whole entry): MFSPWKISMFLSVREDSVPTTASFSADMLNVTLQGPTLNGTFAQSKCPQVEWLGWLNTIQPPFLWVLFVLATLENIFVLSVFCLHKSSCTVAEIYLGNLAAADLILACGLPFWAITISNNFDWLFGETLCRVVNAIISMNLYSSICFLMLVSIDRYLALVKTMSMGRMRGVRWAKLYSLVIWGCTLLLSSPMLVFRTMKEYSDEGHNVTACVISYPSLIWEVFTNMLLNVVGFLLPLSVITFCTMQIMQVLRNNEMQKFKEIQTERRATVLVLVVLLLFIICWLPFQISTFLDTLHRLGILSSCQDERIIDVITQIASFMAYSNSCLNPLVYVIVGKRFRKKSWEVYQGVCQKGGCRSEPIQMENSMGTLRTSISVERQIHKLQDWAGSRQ

[5] = DRUGMATRIX: Phorbol Ester radioligand binding (ligand: [3H] PDBu); format: cell membranes, Mus musculus, ICR, Brain, Membrane; conditions: Not Active = under 50% inhibition at 10 µM

Sodium-dependent dopamine transporter, sequence (Q01959 whole entry): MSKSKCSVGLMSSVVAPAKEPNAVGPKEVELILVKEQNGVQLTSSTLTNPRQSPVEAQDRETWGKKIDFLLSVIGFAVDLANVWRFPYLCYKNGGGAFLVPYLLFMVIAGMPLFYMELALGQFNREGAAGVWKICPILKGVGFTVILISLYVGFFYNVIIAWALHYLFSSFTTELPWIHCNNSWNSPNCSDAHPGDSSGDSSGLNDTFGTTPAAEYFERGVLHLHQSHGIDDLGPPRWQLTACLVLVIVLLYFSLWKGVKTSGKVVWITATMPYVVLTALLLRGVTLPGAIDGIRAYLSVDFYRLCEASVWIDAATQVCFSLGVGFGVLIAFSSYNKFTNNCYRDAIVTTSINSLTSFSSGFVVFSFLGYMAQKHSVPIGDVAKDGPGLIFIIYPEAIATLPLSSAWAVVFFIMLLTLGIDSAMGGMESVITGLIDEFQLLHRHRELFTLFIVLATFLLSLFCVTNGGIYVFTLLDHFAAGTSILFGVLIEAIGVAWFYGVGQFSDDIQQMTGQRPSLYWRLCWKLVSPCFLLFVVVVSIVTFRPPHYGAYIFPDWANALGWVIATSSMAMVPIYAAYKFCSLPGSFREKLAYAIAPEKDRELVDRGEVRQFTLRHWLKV

Row | Compound | IC50 ([1]; cho-k1) | IC50 ([2]; bti-tn-5b1-4) | IC50 [3] | IC50 [4] | IC50 (B2 bradykinin receptor) | IC50 [5] | Ki [5] | IC50 ([1]; read-out: IC50) [µM] | Ki ([1]; read-out: Ki) [µM] | IC50 ([2]; read-out: IC50) [µM]
1 | CC(=O)Oc1ccccc1C(=O)O [ASPIRIN] | Not Active | Not Active | Not Active | Not Active | Not Active | Not Active | Not Active | – | – | –
2 | CC(C)c1c(C(=O)Nc2ccccc2)c(-c2ccccc2)c(-c2ccc(F)cc2)n1CC[C@@H](O)C[C@@H](O)CC(=O)O [ATORVASTATIN] | Not Active | Not Active | Not Active | Not Active | Not Active | Not Active | Not Active | – | – | –
3 | CC(=O)OC[C@H]1O[C@@H](n2ncc(=O)[nH]c2=O)[C@H](OC(C)=O)[C@@H]1OC(C)=O [AZARIBINE] | Not Active | Not Active | Not Active | Not Active | Not Active | Not Active | Not Active | – | – | –
4 | C[C@H]1[C@H](NC(=O)/C(=N\OC(C)(C)C(=O)O)c2csc(N)n2)C(=O)N1S(=O)(=O)O [AZTREONAM] | Not Active | Not Active | Not Active | Not Active | Not Active | Not Active | Not Active | – | – | –
5 | O=C(O)CCNC(=O)c1ccc(/N=N/c2ccc(O)c(C(=O)O)c2)cc1 [BALSALAZIDE] | Not Active | Not Active | Not Active | Not Active | Not Active | Not Active | Not Active | – | – | –
6 | COc1cc(OC)c(C(=O)CCCN2CCCC2)c(OC)c1 [BUFLOMEDIL] | Not Active | Not Active | Not Active | Not Active | Not Active | Not Active | Not Active | – | – | –
7 | Cn1c(=O)c2c(ncn2C)n(C)c1=O [CAFFEINE] | Not Active | Not Active | Not Active | Not Active | Not Active | Not Active | Not Active | – | – | –
8 | ClC(Cl)(Cl)Cl [CARBON TETRACHLORIDE] | Not Active | Not Active | Not Active | Not Active | Not Active | Not Active | Not Active | – | – | –
9 | CO/N=C(\C(=O)N[C@@H]1C(=O)N2C(C(=O)O)=C(COC(C)=O)CS[C@H]12)c1csc(N)n1 [CEFOTAXIME] | Not Active | Not Active | Not Active | Not Active | Not Active | Not Active | Not Active | – | – | –
10 | O=c1c(-c2ccc(O)cc2)coc2cc(O)cc(O)c12 [GENISTEIN] | – | – | Not Active | Not Active | Not Active | Not Active | Not Active | 16.9 | 13.4 | –
11 | N=C(N)c1ccc(OCCCCCOc2ccc(C(=N)N)cc2)cc1 [PENTAMIDINE] | – | – | Not Active | Not Active | Not Active | Not Active | Not Active | – | – | 0.793
12 | NNCCc1ccccc1 [PHENELZINE] | Not Active | – | Not Active | Not Active | Not Active | Not Active | Not Active | – | – | –
